Measurements published in patent US20020193379A1, “Compositions and methods for decreasing the risk of or preventing neural tube disorders in mammals” (Insmed Incorporated, priority 2001, published 2002).
Read-outs that look alike come from different tables or passages of the source.

Assays:
[1] = tested on: curly-tail mouse embryos; test: In vitro culture of curly-tail mouse embryos with inositols at 20 μg/ml for 24 hours; assay type: cell-based; details: for Mean posterior neuropore length / Mean posterior neuropore to crown-rump length ratio: in vitro; for Fold decrease in mean posterior neuropore length: 24 hours of treatment in vitro
Protocol: In in vitro studies, curly-tail mouse embryos were explanted into culture at 9.5 days after conception, corresponding to the onset of low spinal cord neural tube closure. Inositol additions were made at the start of culture and were maintained throughout the 24 hour culture period. Inositols were maintained at 20 μg/ml. At the end of culture, the embryos were dissected from their extraembryonic membranes, and crown-rump and posterior neuropore lengths were measured as indices of developmental growth, progression and low spinal neural tube closure.

[2] = tested on: curly tail mouse fetuses (NTDs characterized by spina bifida); test: In vivo treatment of pregnant curly-tail mice by subcutaneous minipump, fetuses scored for NTDs; details: subcutaneous 90 mg/kg/day, four to ten days
Protocol: (§1) In in vivo studies, pregnant curly-tail female mice were treated with inositols or PBS (control) by either subcutaneous injection or oral gavage. Using inositols at 75 mg/ml injected by subcutaneous minipump at […], a total daily dosage of 90 mg/kg/day was administered. Inositols were administered from gestational day 8.5 through day 18.5, and fetuses were scored for NTDs on days 12.5 and 18.5. For oral dosing, mice were administered via gavage with 400 mg/kg of inositol twice daily on gestational days 8.5 through 10.5, with fetuses scored for NTDs on day 12.5.

[3] = tested on: curly tail mouse fetuses (NTDs characterized by spina bifida); test: In vivo treatment of pregnant curly-tail mice by oral gavage, fetuses scored for NTDs; details: three days; for Number of fetuses showing NTDs characterized by spina bifida / Percent of treated fetuses showing spina bifida: oral gavage 400 mg/kg twice daily
Protocol: as §1

[4] = tested on: curly tail embryos (posterior neuropore closure); assay type: cell-based, mouse; details: for Effect on posterior neuropore length: vs PBS-treated controls
Protocol: (§2) Mice—Curly tail mice are maintained as a homozygous, random-bred stock (Van Straaten, H. W. M. & Copp, A. J., Anat. Embryol. 203, 225-237 (2001)) Experimental litters were generated by timed matings, and the day of finding a copulation plug was designated embryonic day (E) 0.5.
In vitro inositol treatment—E9.5 embryos (17-19 somite stage) were cultured for 24 hours at 38° C. in whole rat serum. Thirty minutes after the start of culture, myo-inositol (Sigma, UK) or D-chiro-inositol (Insmed, Va., USA) was added to the medium (62.5 μl of inositol stock per ml rat serum) to a final concentration of 5, 10, 20 or 50 μg/ml inositol. Control cultures received an equal volume of phosphate buffered saline (PBS). Following culture, embryos were scored for: (i) posterior neuropore length (the distance from the rostral end of the posterior neuropore to the tip of the tail bud), (ii) crown-rump length and (iii) somite number.

[5] = tested on: curly tail fetuses (spina bifida and tail flexion defects); assay type: in vivo, mouse; details: for Likelihood of fetuses being normal vs PBS (ordinal multilevel regression): subcutaneous; for Decrease in spina bifida frequency relative to PBS controls: subcutaneous 72 and 144 μg/g body weight/day
Protocol: as §2
In utero inositol treatment (subcutaneous administration)—For sub-cutaneous administration, osmotic mini-pumps (capacity 100 μl, delivery rate 1 μl/hour; Model 1003D, Alzet) were filled with solutions of 30, 75 or 150 mg/ml inositol (delivering 29, 72 and 144 μg inositol/g body weight/day respectively for a 25 g mouse), or PBS as a control. Mini-pumps were incubated in sterile PBS at 37° C. for 4 hours and then implanted subcutaneously on the back of pregnant mice at E8.5. General anesthesia was induced by an intra-peritoneal injection of 0.01 ml/g body weight of a solution comprising 10% Hypnovel® (midazolam 5 mg/ml) and 25% Hypnorm® (fentanyl citrate 0.315 mg/ml, fluanisone 10 mg/ml) in sterile distilled water.
(§3) Pregnant females were killed at E18.5, and the total number of implantations, classified as viable fetuses or resorptions, was recorded. Fetuses were dissected from the uterus and inspected immediately for the presence of open lumbo-sacral spina bifida and tail flexion defects: the primary manifestations of the curly tail genetic defect.

[6] = tested on: curly tail fetuses (spina bifida and tail flexion defects); test: In utero inositol treatment, oral dosing by gavage, fetuses inspected at E18.5; assay type: in vivo, mouse; details: for Curly tail, % of total for treatment group / Curly tail, number of fetuses / No. uterine resorptions / No. viable fetuses / Normal, % of total for treatment group / Normal, number of fetuses / Resorptions as % of total number of implantations / Spina bifida ± curly tail, % of total for treatment group / Spina bifida ± curly tail, number of fetuses / Mean litter size ± SEM: oral 800 μg inositol/g body weight/day; for Mean litter size ± SEM: viable fetuses per litter; for Reduction in the frequency of spina bifida / Effect on frequency of spina bifida among offspring: oral 800 μg/g body weight/day; for Effect on frequency of spina bifida among offspring: E8.5 to E10.5; for Likelihood of fetuses being normal vs PBS (ordinal multilevel regression): oral dosing study
Protocol: as §2
In utero inositol treatment (oral dosing)—For oral administration, pregnant mice were gavaged with 0.5 ml inositol solution in PBS at 12 hourly intervals from E8.5 to E10.5 (six doses in total; 800 μg/g body weight/day).
as §3

[7] = tested on: rat fibroblasts expressing the human insulin receptor; details: cited from earlier work
[8] = tested on: rats rendered diabetic by streptozotocin; details: cited from earlier work
[9] = tested on: patients with polycystic ovary syndrome; details: cited from earlier work
[10] = tested on: NTDs; details: folic acid supplementation in early pregnancy; cited from earlier work
[11] = tested on: curly tail mice (spinal NTDs); details: cultured embryos and offspring of curly tail mice treated during pregnancy; cited from earlier work
[12] = subcutaneous 29 μg inositol/g body weight/day
[13] = subcutaneous 72 μg inositol/g body weight/day
[14] = subcutaneous 144 μg inositol/g body weight/day

In the case of OC1C(O)C(O)C(O)C(O)C1O [D-chiro-inositol], the “Mean posterior neuropore length” value ([1]; 20 μg/ml, 24 hours) is reported as 0.095±0.055, the “Mean posterior neuropore to crown-rump length ratio” value ([1]; 20 μg/ml, 24 hours) is reported as “.029±.018” and the “Fold decrease in mean posterior neuropore to crown-rump length ratio” value ([1]; 20 μg/ml, 24 hours, compared to control or myo-inositol treated) is reported as 5.6 fold. For the same compound, the “Fold decrease in mean posterior neuropore length” value [1] was 6 fold, the “Fold decrease in number of fetuses with spina bifida compared to control” value [2] was 9 fold and the “Fold decrease in number of fetuses with spina bifida compared to myo-inositol” value [2] was 4 fold. For the same compound, the “Number of fetuses showing NTDs characterized by spina bifida” value (shortened to “Number … by spina bifida”) [2] was 1, the “Percent of treated fetuses showing spina bifida” value (“Percent” for short) [2] was 1.7% and the “Number … by spina bifida” value [3] was 1. The “Percent” value [3] was 2.3%, the “Fold decrease in number of fetuses with spina bifida compared to control” value ([3]; oral) was 8 fold and the “Fold decrease in number of fetuses with spina bifida compared to myo-inositol” value ([3]; oral) was 3 fold. The “Crown-rump length compared with PBS-treated controls” value [4] was “no significant difference”, the “Effect on posterior neuropore length” value ([4]; 20 μg/ml) was “reduced neuropore length” and the “Effect on posterior neuropore length” value ([4]; 50 μg/ml) was “reduced neuropore length”. The “Effect on posterior neuropore length” value ([4]; 5-10 μg/ml) was “not different from PBS-treated controls”, the “Likelihood of fetuses being normal vs PBS (ordinal multilevel regression)” value [5] was “significantly more likely to be normal” and the “Curly tail, % of total for treatment group” value [5, 12] was 65.4%. The “Curly tail, number of fetuses” value [5, 12] was 17, the “Normal, % of total for treatment group” value [5, 12] was 23.1% and the “Normal, number of fetuses” value [5, 12] was 6. The “Spina bifida ± curly tail, % of total for treatment group” value (shortened to “Spina bifida ± curly tail, % of total”) [5, 12] was 11.5%, the “Spina bifida ± curly tail, number of fetuses” value [5, 12] was 3 and the “Curly tail, % of total for treatment group” value [5, 13] was 45.4%. For the same compound, the “Curly tail, number of fetuses” value [5, 13] was 39, the “Normal, % of total for treatment group” value [5, 13] was 52.3% and the “Normal, number of fetuses” value [5, 13] was 45. For the same compound, the “Spina bifida ± curly tail, % of total” value [5, 13] was 2.3%, the “Spina bifida ± curly tail, number of fetuses” value [5, 13] was 2 and the “Curly tail, % of total for treatment group” value [5, 14] was 46.5%. For the same compound, the “Curly tail, number of fetuses” value [5, 14] was 46, the “Normal, % of total for treatment group” value [5, 14] was 48.5% and the “Normal, number of fetuses” value [5, 14] was 48. For the same compound, the “Spina bifida ± curly tail, % of total” value [5, 14] was 5.0%, the “Spina bifida ± curly tail, number of fetuses” value [5, 14] was 5 and the “Decrease in spina bifida frequency relative to PBS controls” value [5] was 73-83%. The “Curly tail, % of total for treatment group” value [6] was 30.8%, the “Curly tail, number of fetuses” value [6] was 12 and the No. uterine resorptions [6] was 3. The No. viable fetuses [6] was 39, the “Normal, % of total for treatment group” value [6] was 66.7% and the “Normal, number of fetuses” value [6] was 26. For the same compound, the “Resorptions as % of total number of implantations” value [6] was 7.1%, the “Spina bifida ± curly tail, % of total” value [6] was 2.6% and the “Spina bifida ± curly tail, number of fetuses” value [6] was 1. The “Mean litter size ± SEM” value [6] was 6.50 ± 1.09, the “Reduction in the frequency of spina bifida” value [6] was 86% and the “Effect on frequency of spina bifida among offspring” value [6] was “marked reduction in the frequency of spina bifida”. For the same compound, the “Likelihood of fetuses being normal vs PBS (ordinal multilevel regression)” value [6] was “more likely to be normal”, the “Effect of insulin stimulation on incorporation into phospholipids” value [7] was “significant increase” and the “Reduction in plasma glucose level compared with exogenous myo-inositol” value [8] was “much larger reduction in plasma glucose level”. For the same compound, the “Effect on the action of insulin” value [9] was “increase the action of insulin”.
In the case of Nc1nc2ncc(CNc3ccc(C(=O)N[C@@H](CCC(=O)O)C(=O)O)cc3)nc2c(=O)[nH]1 [folic acid], the “NTDs that can be prevented” value [10] is listed as “Up to 70%”.
For O[C@H]1[C@H](O)[C@@H](O)[C@H](O)[C@@H](O)[C@H]1O [myo-inositol, reference compound], the “Mean posterior neuropore length” value ([1]; 20 μg/ml, 24 hours) was 0.601±0.090, the “Mean posterior neuropore to crown-rump length ratio” value ([1]; 20 μg/ml, 24 hours) was 0.172 ±0.026 and the “Fold decrease in mean posterior neuropore length” value [1] was 6 fold. The “Number … by spina bifida” value [2] was 4, the “Percent” value [2] was 6.3% and the “Number … by spina bifida” value [3] was 3. The “Percent” value [3] was 8.6%, the “Crown-rump length compared with PBS-treated controls” value [4] was “no significant difference” and the “Effect on posterior neuropore length” value ([4]; 20 μg/ml) was “not different from PBS-treated controls”. The “Effect on posterior neuropore length” value ([4]; 50 μg/ml) was “comparable effect”, the “Likelihood of fetuses being normal vs PBS (ordinal multilevel regression)” value [5] was “reached statistical significance” and the “Curly tail, % of total for treatment group” value [5, 12] was 41.4%. For the same compound, the “Curly tail, number of fetuses” value [5, 12] was 12, the “Normal, % of total for treatment group” value [5, 12] was 37.9% and the “Normal, number of fetuses” value [5, 12] was 11. The “Spina bifida ± curly tail, % of total” value [5, 12] was 20.7%, the “Spina bifida ± curly tail, number of fetuses” value [5, 12] was 6 and the “Curly tail, % of total for treatment group” value [5, 13] was 55.2%. The “Curly tail, number of fetuses” value [5, 13] was 37, the “Normal, % of total for treatment group” value [5, 13] was 38.8% and the “Normal, number of fetuses” value [5, 13] was 26. The “Spina bifida ± curly tail, % of total” value [5, 13] was 6.0%, the “Spina bifida ± curly tail, number of fetuses” value [5, 13] was 4 and the “Curly tail, % of total for treatment group” value [5, 14] was 55.3%. For the same compound, the “Curly tail, number of fetuses” value [5, 14] was 52, the “Normal, % of total for treatment group” value [5, 14] was 36.2% and the “Normal, number of fetuses” value [5, 14] was 34. For the same compound, the “Spina bifida ± curly tail, % of total” value [5, 14] was 8.5%, the “Spina bifida ± curly tail, number of fetuses” value [5, 14] was 8 and the “Decrease in spina bifida frequency relative to PBS controls” value [5] was 54-56%. For the same compound, the “Curly tail, % of total for treatment group” value [6] was 42.9%, the “Curly tail, number of fetuses” value [6] was 15 and the No. uterine resorptions [6] was 3. The No. viable fetuses [6] was 35, the “Normal, % of total for treatment group” value [6] was 48.6% and the “Normal, number of fetuses” value [6] was 17. For the same compound, the “Resorptions as % of total number of implantations” value [6] was 7.9%, the “Spina bifida ± curly tail, % of total” value [6] was 8.6% and the “Spina bifida ± curly tail, number of fetuses” value [6] was 3. The “Mean litter size ± SEM” value [6] was 5.83 ± 0.48, the “Reduction in the frequency of spina bifida” value [6] was 53% and the “Effect on frequency of spina bifida among offspring” value [6] was “marked reduction in the frequency of spina bifida”. The “Likelihood of fetuses being normal vs PBS (ordinal multilevel regression)” value [6] was “did not differ significantly”, the “Effect on incidence of spinal NTDs” value [11] was “significantly reducing the incidence of spinal NTDs” and the “Effect of insulin stimulation on incorporation into phospholipids” value [7] was “only marginal”.
